The target in experiment [1] is T1, Carbonic anhydrase 13 (Mus musculus, UniProt Q9D6N1). Description: Inhibition of mouse carbonic anhydrase 13 assessed as 4-nitrophenyl phosphate hydrolysis.
In experiment [2] the target is T1, Carbonic anhydrase 13. The experiment is described as follows: Inhibition of mouse carbonic anhydrase 13 assessed as 4-nitrophenyl acetate hydrolysis.

We go through one compound from ChEMBL document CHEMBL1141547, “Investigations of the esterase, phosphatase, and sulfatase activities of the cytosolic mammalian carbonic anhydrase isoforms I, II, and XIII with 4-nitrophenyl esters as substrates” (Bioorg Med Chem Lett, 2008).

T1 sequence (Q9D6N1 whole entry): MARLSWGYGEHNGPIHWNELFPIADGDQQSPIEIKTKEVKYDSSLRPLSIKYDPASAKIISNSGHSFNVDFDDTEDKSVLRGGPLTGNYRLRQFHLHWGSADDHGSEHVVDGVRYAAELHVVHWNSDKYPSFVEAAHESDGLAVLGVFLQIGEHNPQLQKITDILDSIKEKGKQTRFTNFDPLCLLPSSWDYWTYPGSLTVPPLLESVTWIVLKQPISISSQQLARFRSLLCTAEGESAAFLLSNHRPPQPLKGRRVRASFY

Turning to `CC(=O)Nc1nnc(S(N)(=O)=O)s1` [ACETAZOLAMIDE], the IC50 on Carbonic anhydrase 13 [1] is 1050 nM; at Carbonic anhydrase 13 [2], 490 nM.

The IC50 is the concentration needed to halve the response being measured.
